Values quoted from earlier work, collected in patent US11737956B2, “Composition for intracanal medication” (MARUCHI, priority 2016, dated 2023).

Conditions: very small amount of dissolution in water

SMILES: [Ca+2].[OH-].[OH-] [calcium hydroxide]
- pH of water: 12.4
